# In ChEMBL document CHEMBL1127239, “Novel cytotoxic annonaceous acetogenins: (2,4-cis and trans)-bulladecinones from annona bullata (annonaceae)” (Bioorg Med Chem Lett, 1994):
# Legend:
# A549 = experiment: Compound was tested for cytotoxic activity against human lung carcinoma (A-549); type: functional; conditions: for EC50: Homo sapiens, A549, read-out: ED50 (the source's name)
# HT-29 = experiment: Compound was tested for cytotoxic activity against human colon adenocarcinoma (HT-29); type: functional; conditions: for EC50: Homo sapiens, HT-29, read-out: ED50 (the source's name)
# MCF7 = experiment: Compound was tested for cytotoxic activity against human breast carcinoma (MCF-7); type: functional; conditions: for EC50: Homo sapiens, MCF7, read-out: ED50 (the source's name)
# [1] = (§1) Compound was tested for lethal concentration in Brine shrimp lethality test (BST); type: organism-based; conditions: artemia, in vivo
# Artemia = experiment: as §1; type: organism-based; conditions: in vivo
SMILES,EC50 (A549),EC50 (HT-29),EC50 (MCF7),LC50 [1],ED50 (A549),ED50 (HT-29),ED50 (MCF7),LC50 (Artemia)
CCCCCCCCCCC(O)C(O)CCC(O)C1CCC(C2CCC(CCCCCCCC3CC(CC(C)=O)C(=O)O3)O2)O1 (stereo in doubt),0.0337 ng/mL,229 ng/mL,1.07 ng/mL,137 ng/mL,,,,
CCCCCCCCCCC(O)C(O)CCC(O)C1CCC(C2CCC(CCCCCCCC3CC(CC(C)=O)C(=O)O3)O2)O1 (trans isomer),,,,,0.0337 ng/mL,229 ng/mL,1.07 ng/mL,137 ng/mL
COc1cccc2c1C(=O)c1c(O)c3c(c(O)c1C2=O)C[C@@](O)(C(=O)CO)C[C@@H]3O[C@H]1C[C@H](N)[C@H](O)[C@H](C)O1 [DOXORUBICIN],0.153 ng/mL,0.558 ng/mL,13.8 ng/mL,,,,,80 ng/mL
